Laboratory results reported in US7973075B2, “Kainate receptor-selective epimeric analogs of dysiherbaine” (priority 2007, dated 2011).
“Also recorded” adds a separate entry of the source.

What was measured:
mice = assay: Seizure (convulsant) activity after i.c.v. injection; type: in vivo
GluR6a = target: T1, GluR6a (Rattus norvegicus, UniProt P42260); assay: Whole-cell patch clamp recordings, transfected HEK-293-T/17 cells, Example 2; type: cell-based; conditions: for agonist activity: analog-evoked currents from GluR6a receptors (words): 1 s test application of the analog at a high concentration (50-100 μM)
T1 construct: expressed in transfected cells; host or cells: HEK-293-T/17
T1 sequence (P42260 32-908): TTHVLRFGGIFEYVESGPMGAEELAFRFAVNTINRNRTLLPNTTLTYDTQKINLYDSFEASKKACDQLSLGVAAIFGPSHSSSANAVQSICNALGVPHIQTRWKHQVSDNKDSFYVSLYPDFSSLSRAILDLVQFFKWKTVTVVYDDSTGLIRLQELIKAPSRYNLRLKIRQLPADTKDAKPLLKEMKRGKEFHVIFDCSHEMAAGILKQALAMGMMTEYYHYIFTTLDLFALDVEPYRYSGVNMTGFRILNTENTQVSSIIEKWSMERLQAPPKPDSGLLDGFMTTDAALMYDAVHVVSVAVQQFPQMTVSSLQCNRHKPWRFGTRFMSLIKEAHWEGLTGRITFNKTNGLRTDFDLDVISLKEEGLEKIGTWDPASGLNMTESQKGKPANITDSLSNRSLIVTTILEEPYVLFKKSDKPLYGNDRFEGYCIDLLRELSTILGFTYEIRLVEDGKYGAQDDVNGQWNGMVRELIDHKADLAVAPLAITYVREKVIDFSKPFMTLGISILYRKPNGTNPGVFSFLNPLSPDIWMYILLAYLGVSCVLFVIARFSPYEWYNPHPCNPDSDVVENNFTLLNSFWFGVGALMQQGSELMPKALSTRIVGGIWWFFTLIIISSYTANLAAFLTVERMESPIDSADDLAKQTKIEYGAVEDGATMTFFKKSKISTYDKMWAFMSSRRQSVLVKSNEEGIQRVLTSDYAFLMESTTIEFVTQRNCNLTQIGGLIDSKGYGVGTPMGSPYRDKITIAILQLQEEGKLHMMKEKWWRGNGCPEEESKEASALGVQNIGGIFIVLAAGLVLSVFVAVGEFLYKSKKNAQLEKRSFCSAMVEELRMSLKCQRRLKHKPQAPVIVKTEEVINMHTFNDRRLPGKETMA
Procedure: (§1) Cell Culture and Electrophysiology. HEK-293-T/17 cells were maintained in Dulbecco's modified Eagle's medium (DMEM) supplemented with 100 μg/mL penicillin, 100 μg/mL streptomycin, and 10% heat inactivated fetal bovine serum. One day before transfection, HEK-T/17 cells were plated at low density on glass coverslips coated with 100 μg/ml poly-D-lysine and 100 μg/ml collagen. Cells were transfected with receptor cDNAs ([…]) in combination with enhanced green fluorescent protein (eGFP) cDNA for visualization of transfected cells. Transfections were carried out with Fugene6 (Roche Applied Science) according to the manufacturer's protocol and used 2-3 days following transfection. Internal solution consisted of 110 mM CsF, 30 mM CsCl, 4 mM NaCl, 0.5 mM CaCl2, 10 mM HEPES, and 5 mM EGTA, and was adjusted to pH=7.3 with CsOH. The external solution contained 150 mM NaCl, 2.8 mM KCI, 2 mM CaCl2, 1 mM MgCl2, and 10 mM HEPES, adjusted to pH=7.3 with NaOH. Patch electrodes from thick-walled borosilicate glass (Warner Instruments, Hamden, Conn.) were pulled to a final resistance of 1.5 to 2.5 MO after fire polishing. […] To determine the pre-desensitization IC50 of selected analogs, several control glutamate (10 mM) applications were followed by a 2.5 minute application of various concentrations of 8-deoxy-neoDH, 9-deoxy-neoDH, or MSVIII-19, after which the analogs were co-applied with glutamate. A similar protocol was followed to measure the recovery of glutamate-evoked currents, with the exception that the analogs were not co-applied with glutamate. Whole cell patch clamp recordings were carried out using an Axopatch 200B amplifier (Axon Instruments). Data were analyzed with Origin 7.5 (OriginLab Corp.), and Prism4 (GraphPad Software Inc.); inhibition-response curves were plotted and fit with a one-site competition curve constrained to fixed minima (0) and maxima (100).
(§2) The pharmacological activities of the C2/C4 epimers were determined in patch-clamp assays with GluR5-2a or GluR6a KARs as well as GluR4(i) AMPA receptors.
(§3) 30 μM 2,4-epi-neoDH reduced glutamate-induced currents from GluR5-2a receptors by −70% while the same concentration reduced glutamate-induced currents from GluR6a receptors by −30% (FIG. 13A). […] We noted that the data derived from recording of the GluR5-2a receptor was poorly fit by the single component logistic curve, particularly at the lower concentrations. This inconsistency may arise from inter-subunit or inter-dimer cooperativity in the inhibitory activity or may be an apparent artifact resulting from run-down of the GluR5-2a receptor currents.

GluR6 [1] = target: T2, GluR6 (Rattus norvegicus, UniProt P42260); assay: Patch-clamp recordings from transfected HEK 293 cells, Example 1; type: cell-based; conditions: Example 1, FIG. 5
T2 construct: expressed in transfected cells; HEK 293 (patch clamp)
T2 sequence (P42260 32-908): as above
Procedure: Non-specific binding was defined in the presence of 1 mM glutamate. The effect of these analogs on electrophysiology was assessed as follows. HEK 293 cells were transfected with receptor cDNAs in combination with eGFP cDNA. Patch-clamp recordings from transfected cells were made 24-72 hours later using a fast application system described previously (Swanson et al., NEURON 1997; 19:913-26). (See FIG. 3.)
The effect of these analogs on electrophysiology also was assessed as described above. […] The results further indicate that the C8 and C9 substituents are necessary for binding to all AMPA and KAR subunits except for GluR5 subunits. The C9 polar group must be present and in the correct spatial orientation for high-affinity GluR5 subunit binding. Inter-domain contacts mediated by residue 721S are critical determinants of binding affinity. The epimer analog 9-deoxy-neoDH mimics the binding affinity of the di-deoxy analog MSVIII-19, but acts as an agonist rather than an antagonist.

GluR5-2a [2] = target: T3, GluR5-2a (Rattus norvegicus, UniProt P22756, DEL402-416); conditions: Sanders et al., 2005; read-out: IC50 for inhibition of glutamate-evoked currents, GluR5-2a receptors; cited from earlier work
T3 construct: expressed in transfected cells; host or cells: HEK-293-T/17
T3 sequence (P22756 with tags, fused parts or gaps isoform P22756-2 limits assumed, stated change not applied): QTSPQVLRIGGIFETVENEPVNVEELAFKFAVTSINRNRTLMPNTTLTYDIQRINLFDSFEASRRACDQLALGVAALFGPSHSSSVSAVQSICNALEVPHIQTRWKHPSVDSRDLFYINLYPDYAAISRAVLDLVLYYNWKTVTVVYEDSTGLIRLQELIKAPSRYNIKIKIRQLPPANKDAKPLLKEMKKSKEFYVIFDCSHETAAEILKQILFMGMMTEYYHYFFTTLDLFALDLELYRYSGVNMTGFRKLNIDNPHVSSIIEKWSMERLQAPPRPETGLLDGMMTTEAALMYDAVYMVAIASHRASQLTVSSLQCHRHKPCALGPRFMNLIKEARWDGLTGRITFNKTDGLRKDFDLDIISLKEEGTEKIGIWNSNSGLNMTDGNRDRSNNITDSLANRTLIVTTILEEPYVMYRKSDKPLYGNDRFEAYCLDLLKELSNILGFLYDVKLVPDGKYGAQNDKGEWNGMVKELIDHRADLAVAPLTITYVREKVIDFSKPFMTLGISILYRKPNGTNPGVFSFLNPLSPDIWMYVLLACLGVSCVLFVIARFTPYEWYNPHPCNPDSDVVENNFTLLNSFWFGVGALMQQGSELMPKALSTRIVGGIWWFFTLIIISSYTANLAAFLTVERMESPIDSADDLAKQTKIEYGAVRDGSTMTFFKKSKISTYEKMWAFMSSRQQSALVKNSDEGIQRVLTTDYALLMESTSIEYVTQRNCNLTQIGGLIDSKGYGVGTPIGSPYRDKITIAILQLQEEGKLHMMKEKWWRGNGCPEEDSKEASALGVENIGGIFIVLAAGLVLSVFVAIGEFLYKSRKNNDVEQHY

GluR2 = target: T4, GluR2 (Rattus norvegicus, UniProt P19491); conditions: Table 1; comparison value of MSVIII-19 (Sanders et al., 2005); read-out: GluR2 binding affinity (displacement of [3H]AMPA); cited from earlier work
T4 construct: expressed in transfected cells; host or cells: COS-7 or HEK-T/17
T4 sequence (P19491 22-883 isoform P19491-2 limits assumed): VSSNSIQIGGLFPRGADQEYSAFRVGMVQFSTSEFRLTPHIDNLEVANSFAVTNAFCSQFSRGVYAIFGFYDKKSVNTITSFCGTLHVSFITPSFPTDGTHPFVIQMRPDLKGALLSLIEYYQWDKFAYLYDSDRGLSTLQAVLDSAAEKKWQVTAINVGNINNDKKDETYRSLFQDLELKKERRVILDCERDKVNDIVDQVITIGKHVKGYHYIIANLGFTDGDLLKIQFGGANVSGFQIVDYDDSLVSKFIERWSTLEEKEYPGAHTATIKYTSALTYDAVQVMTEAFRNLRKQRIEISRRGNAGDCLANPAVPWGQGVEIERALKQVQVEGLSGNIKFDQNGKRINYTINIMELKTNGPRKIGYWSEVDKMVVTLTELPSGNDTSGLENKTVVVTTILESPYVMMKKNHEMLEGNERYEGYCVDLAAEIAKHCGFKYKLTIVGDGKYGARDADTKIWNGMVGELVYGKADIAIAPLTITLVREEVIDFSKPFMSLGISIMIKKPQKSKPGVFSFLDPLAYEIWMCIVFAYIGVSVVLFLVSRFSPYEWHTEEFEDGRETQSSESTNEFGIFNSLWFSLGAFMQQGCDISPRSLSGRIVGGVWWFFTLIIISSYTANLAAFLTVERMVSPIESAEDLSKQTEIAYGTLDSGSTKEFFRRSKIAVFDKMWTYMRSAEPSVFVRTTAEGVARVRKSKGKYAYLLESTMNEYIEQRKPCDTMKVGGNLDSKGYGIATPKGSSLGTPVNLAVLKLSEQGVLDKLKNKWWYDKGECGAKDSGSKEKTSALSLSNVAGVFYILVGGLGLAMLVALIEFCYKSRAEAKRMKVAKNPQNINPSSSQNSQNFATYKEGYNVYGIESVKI

GluR5-2a [3] = target: T3, GluR5-2a; conditions: Sanders et al., 2005; cited from earlier work
GluR1 = target: T5, GluR1 (Rattus norvegicus, UniProt P19490); conditions: Table 1; comparison value of MSVIII-19 (Sanders et al., 2005); read-out: GluR1 binding affinity (displacement of [3H]AMPA); cited from earlier work
T5 construct: expressed in transfected cells; host or cells: COS-7 or HEK-T/17
T5 sequence (P19490 19-907 isoform P19490-2 limits assumed): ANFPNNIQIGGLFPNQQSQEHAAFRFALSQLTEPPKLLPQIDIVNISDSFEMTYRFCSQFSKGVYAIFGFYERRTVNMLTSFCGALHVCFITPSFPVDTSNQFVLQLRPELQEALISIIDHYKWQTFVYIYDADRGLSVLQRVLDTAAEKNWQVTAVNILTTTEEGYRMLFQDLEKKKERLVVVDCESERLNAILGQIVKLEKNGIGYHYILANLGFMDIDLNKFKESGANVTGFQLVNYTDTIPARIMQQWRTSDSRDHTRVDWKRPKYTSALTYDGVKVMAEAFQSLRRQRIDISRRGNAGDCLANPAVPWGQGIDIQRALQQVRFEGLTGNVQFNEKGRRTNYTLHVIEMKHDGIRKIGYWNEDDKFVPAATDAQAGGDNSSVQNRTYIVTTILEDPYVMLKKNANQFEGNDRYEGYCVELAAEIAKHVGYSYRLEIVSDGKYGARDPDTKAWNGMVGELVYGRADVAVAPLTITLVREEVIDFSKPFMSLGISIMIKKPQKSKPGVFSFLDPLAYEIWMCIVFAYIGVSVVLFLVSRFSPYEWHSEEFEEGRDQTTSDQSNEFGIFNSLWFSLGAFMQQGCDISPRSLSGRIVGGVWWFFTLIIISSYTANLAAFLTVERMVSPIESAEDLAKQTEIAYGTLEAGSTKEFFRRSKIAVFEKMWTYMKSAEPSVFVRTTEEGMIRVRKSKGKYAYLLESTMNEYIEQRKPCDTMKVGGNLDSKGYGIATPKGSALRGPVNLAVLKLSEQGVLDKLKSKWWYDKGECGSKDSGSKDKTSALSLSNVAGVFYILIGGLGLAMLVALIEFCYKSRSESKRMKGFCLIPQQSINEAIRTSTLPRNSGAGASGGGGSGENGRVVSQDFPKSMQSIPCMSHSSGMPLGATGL

GluR1(i) = target: T6, GluR1(i) (Rattus norvegicus, UniProt P19490); conditions: Sanders et al., 2005; cited from earlier work
T6 construct: expressed in transfected cells; host or cells: HEK-293-T/17
T6 sequence (P19490 19-907 isoform P19490-2 limits assumed): as above

GluR6 [4] = target: T2, GluR6; conditions: Table 1; comparison value of MSVIII-19 (Sanders et al., 2005); read-out: GluR6 binding affinity (displacement of [3H]kainate); cited from earlier work
GluR4(i) AMPA receptors = target: T7, GluR4(i) AMPA receptors (Rattus norvegicus, UniProt P19493); assay: Whole-cell patch clamp recordings, transfected HEK-293-T/17 cells, Example 2; type: cell-based; conditions: 300 μM analog
T7 construct: expressed in transfected cells; host or cells: HEK-293-T/17
T7 sequence (P19493 22-902 isoform P19493-2 limits assumed): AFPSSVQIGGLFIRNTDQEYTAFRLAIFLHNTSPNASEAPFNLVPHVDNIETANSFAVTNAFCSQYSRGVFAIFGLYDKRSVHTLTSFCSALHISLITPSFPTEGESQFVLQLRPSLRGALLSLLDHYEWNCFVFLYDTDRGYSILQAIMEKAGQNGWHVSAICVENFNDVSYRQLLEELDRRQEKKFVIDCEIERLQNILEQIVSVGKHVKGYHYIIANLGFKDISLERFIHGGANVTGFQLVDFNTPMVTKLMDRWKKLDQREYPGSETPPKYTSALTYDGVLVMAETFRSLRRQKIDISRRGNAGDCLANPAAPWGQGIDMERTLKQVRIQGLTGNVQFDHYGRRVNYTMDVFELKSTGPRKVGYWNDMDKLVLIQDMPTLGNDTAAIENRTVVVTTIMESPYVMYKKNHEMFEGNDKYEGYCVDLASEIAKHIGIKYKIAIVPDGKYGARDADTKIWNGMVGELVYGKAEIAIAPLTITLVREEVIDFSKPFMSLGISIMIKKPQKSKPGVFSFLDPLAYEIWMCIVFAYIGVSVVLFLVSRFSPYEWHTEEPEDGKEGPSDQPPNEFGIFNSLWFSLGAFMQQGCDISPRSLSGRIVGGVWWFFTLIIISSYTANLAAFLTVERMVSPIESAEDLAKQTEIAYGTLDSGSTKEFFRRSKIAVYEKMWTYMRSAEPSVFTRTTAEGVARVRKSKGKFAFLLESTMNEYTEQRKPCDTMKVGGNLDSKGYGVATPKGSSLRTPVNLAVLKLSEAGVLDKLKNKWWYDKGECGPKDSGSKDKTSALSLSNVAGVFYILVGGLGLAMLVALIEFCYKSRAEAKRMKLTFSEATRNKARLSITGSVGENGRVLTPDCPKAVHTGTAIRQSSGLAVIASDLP
Procedure: as §1, §2, §3

N[C@@H](C[C@@]1(C(=O)O)CC2OCC(O)C(O)C2O1)C(=O)O (single isomer, unassigned) [4-epi-neoDH, 4-epi-neodysiherbaine]
ED50, fold lower than that of 2,4-epi-neoDH (mice; i.c.v. injection, mice): > 6 fold | recovery of glutamate-evoked currents after analog application, GluR6a (GluR6a; 30 μM analog): only exhibited a transient desensitization | agonist activity: analog-evoked currents from GluR6a receptors (words) (GluR6a): evoked small but detectable currents; also recorded: elicits large currents; also recorded: activates | agonist or antagonist at GluR6 (electrophysiology) (GluR6 [1]): GluR5/GluR6 antagonist

NC(CC1(C(=O)O)CC2OCC(O)C(O)C2O1)C(=O)O (stereo not drawn) [8,9-epi-neoDH, 8,9-epi-neodysiherbaine]
convulsive behavior (mice; high doses): fails to elicit convulsive behavior even at high doses

N[C@@H](C[C@]1(C(=O)O)C[C@H]2OCCC[C@H]2O1)C(=O)O [MSVIII-19, 8,9-dideoxy-neoDH]
IC50 (GluR5-2a [2]): 0.023 µM | Ki (GluR2): > 100 µM | Ki (GluR5-2a [3]): 0.128 µM | Ki (GluR1): > 100 µM | Ki (GluR1(i)): > 100 µM | Ki (GluR6 [4]): > 100 µM

N[C@@H](C[C@@]1(C(=O)O)CC2OCC(O)C(O)C2O1)C(=O)O (single isomer, unassigned) [2,4-epi-neoDH, 2,4-epi-neodysiherbaine]
recovery of glutamate-evoked currents after analog application, GluR6a (GluR6a; 30 μM analog): current amplitudes recovered more slowly | reduction of glutamate-induced currents from GluR6a receptors (GluR6a; 30 μM analog): ~30% | IC50 (GluR6a; 10 mM glutamate in continued presence of analog, read-out: IC50 inhibition of glutamate-evoked currents, GluR6a): 74 µM | agonist activity: analog-evoked currents from GluR6a receptors (words) (GluR6a): failed to elicit detectable current; also recorded: antagonist (or possibly a very weak partial agonist); also recorded: fails to activate GluR5 or GluR6 receptors, even at 100 μM | agonist activity: analog-evoked currents from GluR6a receptors (words) (GluR6a; listed as 2,4-epineoDH): fails to activate | inhibition of currents from GluR4(i) receptors (GluR4(i) AMPA receptors): failed to inhibit
